Molecules are shown by their SMILES.

The target of the experiment is T1, recombinant human FAAH (rhFAAH) (Homo sapiens, UniProt O00519).
T1 construct: purchased Cayman Chemical (Ann Arbor, MI, USA)
T1 sequence (O00519 1-579): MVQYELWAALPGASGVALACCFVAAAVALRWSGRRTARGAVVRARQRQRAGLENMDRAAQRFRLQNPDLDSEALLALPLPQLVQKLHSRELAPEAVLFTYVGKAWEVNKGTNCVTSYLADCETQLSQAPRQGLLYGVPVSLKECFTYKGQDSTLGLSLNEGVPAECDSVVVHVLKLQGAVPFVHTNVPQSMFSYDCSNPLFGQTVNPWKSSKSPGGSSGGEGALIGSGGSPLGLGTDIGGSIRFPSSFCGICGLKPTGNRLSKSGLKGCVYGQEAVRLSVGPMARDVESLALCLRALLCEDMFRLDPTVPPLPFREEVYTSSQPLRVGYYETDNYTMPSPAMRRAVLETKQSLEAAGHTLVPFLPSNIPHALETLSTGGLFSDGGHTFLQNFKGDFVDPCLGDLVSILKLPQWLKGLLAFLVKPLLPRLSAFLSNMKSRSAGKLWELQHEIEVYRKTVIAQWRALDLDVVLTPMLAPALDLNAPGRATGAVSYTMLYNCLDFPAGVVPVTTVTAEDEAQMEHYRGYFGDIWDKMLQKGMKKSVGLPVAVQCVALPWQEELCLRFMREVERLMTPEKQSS
Nature of the experiment: FAAH substrate evaluation (formation of acid metabolite, LC-MS/MS). The class given is biochemical. Set-up: key: A: ke is equal to or less than 1.0; B: ke is greater than 1.0 and less than or equal to 2.5; C: ke is greater than 2.5; NC: no conversion. The settings on record: 0.5 ng/μL rhFAAH, 1 μM test compound, pH 8.0, room temperature, 0-60 minutes. Here is the method:
Purified recombinant human FAAH (rhFAAH) was purchased from Cayman Chemical (Ann Arbor, MI, USA). The total volume for each incubation was 400 μL containing a final 0.5 ng/μL rhFAAH, 1 μM test compound, 1.25% ethanol or 1 μM PF-3845 (FAAH inhibitor), and 0.1% bovine serum albumin in Tris-EDTA buffer at pH 8.0). The positive control was LL-341001. The incubation was conducted at the room temperature. At 0, 5, 15, 30 and 60 minutes, an aliquot of 30 μL reaction mixtures was removed and mixed with 300 μL acetonitrile containing 5 ng/mL terfenadine and 10 ng/mL tolbutamide as internal standards to quench the reaction. The resulting mixture was centrifuged at 4000 rpm, 4° C. for 15 minutes, and 100 μL supernatant was ready for LC-MS/MS analysis to measure the formation of acid metabolite.
Acquity Ultra Performance LC system from Waters was used for sample analysis. The chromatography was performed on a reverse phase Kinetex 2.6 μm C18 column, 2.1×30 mm, 100 Å. The mobile phase A comprised of 0.1% formic acid in water and mobile phase B comprised of 0.1% formic acid in acetonitrile with a 2-min run time at the flow rate of 0.8 mL/min for the acid metabolite from positive control or a 1.5 min run time at the flow rate of 0.9 mL/min for the acid metabolite of test compounds. The mass spectrometer (API-5500 and API Q Trap 4000 Applied Biosystems/MDS SCIEX Instruments, Framingham, MA, USA) was operated under ESI positive or negative ion MRM mode.
The formation of acid metabolite was monitored and quantified using one calibration point of 1 μM. The observed rate constant (ke) for the acid metabolite formation was calculated by plotting the metabolite concentration versus time of incubation with the slope being ke and is shown in Table 4.
With `CNC(=O)CNc1cc(Cl)c(Cc2ccc(O)c(C(C)C)c2)c(Cl)c1F` [Compound 76, 2-((3,5-dichloro-2-fluoro-4-(4-hydroxy-3-isopropylbenzyl)phenyl)amino)-N-methylacetamide], the “ke, observed rate constant for the acid metabolite formation” value (“ke, observed rate constant” below) is reported as “A (ke is equal to or less than 1.0)”. With `CNC(=O)CNc1cc(Cl)c(Cc2ccc(O)c(C(C)C)c2F)c(Cl)c1F` [Compound 79, 2-((3,5-dichloro-2-fluoro-4-(2-fluoro-4-hydroxy-3-isopropylbenzyl)phenyl)amino)-N-methylacetamide] the entry was “A (ke is equal to or less than 1.0)”; with `CNC(=O)CNCc1cc(Cl)c(Cc2ccc(O)c(C(C)C)c2)c(Cl)c1` [Compound 111, 2-((3,5-dichloro-4-(4-hydroxy-3-isopropylbenzyl)benzyl)amino)-N-methylacetamide], “A (ke is equal to or less than 1.0)”.

With `CNC(=O)/C=C/c1cc(Cl)c(Cc2ccc(O)c(C(C)C)c2F)c(Cl)c1` [Compound 115, (E)-3-(3,5-dichloro-4-(2-fluoro-4-hydroxy-3-isopropylbenzyl)phenyl)-N-methylacrylamide], the “ke, observed rate constant” value was “NC”. Take `CON(C)C(=O)/C(C)=C/c1cc(Cl)c(Cc2ccc(O)c(C(C)C)c2F)c(Cl)c1` [Compound 122, (E)-3-(3,5-dichloro-4-(2-fluoro-4-hydroxy-3-isopropylbenzyl)phenyl)-N-methoxy-N,2-dimethylacrylamide]: the “ke, observed rate constant” value is reported as “A (ke is equal to or less than 1.0)”. With `Cc1cc(CSCC(=O)NC2CCCCC2)cc(Cl)c1Cc1ccc(O)c(C(C)C)c1` [Compound 131, 2-((3-chloro-4-(4-hydroxy-3-isopropylbenzyl)-5-methylbenzyl)thio)-N-cyclohexylacetamide] the entry was “NC”; with `CNC(=O)CNc1cc(C)c(Cc2ccc(O)c(C(C)C)c2)c(Cl)c1F` [Compound 135, 2-((3-chloro-2-fluoro-4-(4-hydroxy-3-isopropylbenzyl)-5-methylphenyl)amino)-N-methylacetamide], “A (ke is equal to or less than 1.0)”. As for `CNC(=O)CNc1cc(Cl)c(Cc2ccc(O)c(C(C)C)c2F)c(C)c1F` [Compound 136, 2-((5-chloro-2-fluoro-4-(2-fluoro-4-hydroxy-3-isopropylbenzyl)-3-methylphenyl)amino)-N-methylacetamide], the “ke, observed rate constant” value was “A (ke is equal to or less than 1.0)”. Consider `CNC(=O)/C(C)=C/c1cc(Cl)c(Cc2ccc(O)c(C(C)C)c2F)c(Cl)c1` [Compound 146, (E)-3-(3,5-dichloro-4-(2-fluoro-4-hydroxy-3-isopropylbenzyl)phenyl)-N,2-dimethylacrylamide], for which the “ke, observed rate constant” value is “A (ke is equal to or less than 1.0)”. As for `CNC(=O)CSCc1cc(Cl)c(Cc2ccc(O)c(C(C)C)c2F)c(Cl)c1` [Compound 147, 2-((3,5-dichloro-4-(2-fluoro-4-hydroxy-3-isopropylbenzyl)benzyl)thio)-N-methylacetamide], the entry is “C (ke is greater than 2.5)”. As for `CNC(=O)CN(C)c1cc(Cl)c(Cc2ccc(O)c(C(C)C)c2)c(Cl)c1` [Compound 149, 2-((3,5-dichloro-4-(4-hydroxy-3-isopropylbenzyl)phenyl)(methyl)amino)-N-methylacetamide], the entry is “NC”; as for `CC(C)c1c(O)ccc(Cc2c(Cl)cc(NCC(=O)NCCCF)c(F)c2Cl)c1F` [Compound 155, 2-((3,5-dichloro-2-fluoro-4-(2-fluoro-4-hydroxy-3-isopropylbenzyl)phenyl)amino)-N-(3-fluoropropyl)acetamide], “A (ke is equal to or less than 1.0)”; as for `CC(C)c1c(O)ccc(Cc2c(Cl)cc(NCC(=O)N[C@@H]3C[C@@H]3F)c(F)c2Cl)c1F` [Compound 156, 2-((3,5-dichloro-2-fluoro-4-(2-fluoro-4-hydroxy-3-isopropylbenzyl)phenyl)amino)-N-((1R,2S)-2-fluorocyclopropyl)acetamide], “A (ke is equal to or less than 1.0)”. On to `CC(C)c1c(O)ccc(Cc2c(Cl)cc(NCC(=O)Nc3cccnn3)c(F)c2Cl)c1F` [Compound 157, 2-((3,5-dichloro-2-fluoro-4-(2-fluoro-4-hydroxy-3-isopropylbenzyl)phenyl)amino)-N-(pyridazin-3-yl)acetamide], for which the “ke, observed rate constant” value is “B (ke is greater than 1.0 and less than or equal to 2.5)”.

For the compound `COc1ccc(NC(=O)CNc2cc(Cl)c(Cc3ccc(O)c(C(C)C)c3F)c(Cl)c2F)cn1` [Compound 158, 2-((3,5-dichloro-2-fluoro-4-(2-fluoro-4-hydroxy-3-isopropylbenzyl)phenyl)amino)-N-(6-methoxypyridin-3-yl)acetamide], the “ke, observed rate constant” value was “B (ke is greater than 1.0 and less than or equal to 2.5)”. As for `COc1ccc(NC(=O)CNc2cc(Cl)c(Cc3ccc(O)c(C(C)C)c3F)c(Cl)c2F)nn1` [Compound 159, 2-((3,5-dichloro-2-fluoro-4-(2-fluoro-4-hydroxy-3-isopropylbenzyl)phenyl)amino)-N-(6-methoxypyridazin-3-yl)acetamide], the entry is “B (ke is greater than 1.0 and less than or equal to 2.5)”.

As to `CC(C)c1c(O)ccc(Cc2c(Cl)cc(NCC(=O)Nc3cccnc3)c(F)c2Cl)c1F` [Compound 160, 2-((3,5-dichloro-2-fluoro-4-(2-fluoro-4-hydroxy-3-isopropylbenzyl)phenyl)amino)-N-(pyridin-3-yl)acetamide], the “ke, observed rate constant” value is “B (ke is greater than 1.0 and less than or equal to 2.5)”. With `CC(C)c1c(O)ccc(Cc2c(Cl)cc(NCC(=O)Nc3ccncc3)c(F)c2Cl)c1F` [Compound 161, 2-((3,5-dichloro-2-fluoro-4-(2-fluoro-4-hydroxy-3-isopropylbenzyl)phenyl)amino)-N-(pyridin-4-yl)acetamide] the entry was “B (ke is greater than 1.0 and less than or equal to 2.5)”; with `CC(C)c1c(O)ccc(Cc2c(Cl)cc(NCC(=O)Nc3ccnnc3)c(F)c2Cl)c1F` [Compound 162, 2-((3,5-dichloro-2-fluoro-4-(2-fluoro-4-hydroxy-3-isopropylbenzyl)phenyl)amino)-N-(pyridazin-4-yl)acetamide], “C (ke is greater than 2.5)”. With `CC(C)c1c(O)ccc(Cc2c(Cl)cc(NCC(N)=O)c(F)c2Cl)c1F` [Compound 163, 2-((3,5-dichloro-2-fluoro-4-(2-fluoro-4-hydroxy-3-isopropylbenzyl)phenyl)amino)acetamide] the entry was “A (ke is equal to or less than 1.0)”; with `CC(C)CNC(=O)CNc1cc(Cl)c(Cc2ccc(O)c(C(C)C)c2F)c(Cl)c1F` [Compound 164, 2-((3,5-dichloro-2-fluoro-4-(2-fluoro-4-hydroxy-3-isopropylbenzyl)phenyl)amino)-N-isobutylacetamide], “NC”; with `CCNC(=O)CNc1cc(Cl)c(Cc2ccc(O)c(C(C)C)c2F)c(Cl)c1F` [Compound 165, 2-((3,5-dichloro-2-fluoro-4-(2-fluoro-4-hydroxy-3-isopropylbenzyl)phenyl)amino)-N-ethylacetamide], “A (ke is equal to or less than 1.0)”. As for `CC(C)c1c(O)ccc(Cc2c(Cl)cc(NCC(=O)N(C)C)c(F)c2Cl)c1F` [Compound 166, 2-((3,5-dichloro-2-fluoro-4-(2-fluoro-4-hydroxy-3-isopropylbenzyl)phenyl)amino)-N,N-dimethylacetamide], the entry is “NC”.
